According to patent US7666890B2, “Synthesis and herbicidal activity of 1- (2-substituted benzo[d]thiazol-5-yl)-1H-1,2,4-triazol-5(4H)-one derivatives” (Huazhong Normal University, priority 2007, dated 2010):

Key:
Assay in all cases: Test of herbicidal activities (greenhouse pot method)
Format in all cases: in vivo
Conditions in all cases: single dose 300 g ai./h, treated before/after germination, 15 days later, greenhouse pot
Brassica juncea = test system: Brassica juncea
Description: (§1) Garden soil was collected from regions where no pesticide is used and mixed uniformly with mountain soil and organic humus soil at a volume ratio of 1:1:1.
(§2) Multiple flowerpots each having a diameter of 9.5 cm and a depth of 8 cm were filled with the soil mixture to 3/4 volume. After water was added to the soil and the soil was completely wet, seeds of three grass weeds and three broadleaf weeds were inserted into the flowerpots (10-15 seeds for each weed). After seeding, the seeds were covered with fine oil mixed with sand and having a thickness of 1-3 cm. After the soil absorbed enough water and became saturated, excess water at the bottom of the flowerpot was drained, and the seeds were placed in a greenhouse for growth.
(§3) The weeds were watered every day so as to keep relative humidity of the soil at approximately 80%, growing temperature of 15-30° C., and air humidity above 50%. As the grass weeds grew to a 2-leaf stage and the broadleaf weeds was in a leaf period, spraying operation […] was performed on the stems and leafs. Planting before germination was performed before spraying. Soil processing was performed before the seeds of the weeds emerged.
(§4) Six target weeds comprising three grass weeds: Echinochloa crusgalli, Digiatria sanguinalis, Setaria viridis, along with three broadleaf weeds: Brassica juncea, Amaranthus retroflexus, Chenopodium album were treated before/after germination using a so-called “greenhouse pot” method with a single dose. A treating dose was 300 g ai./h. The process was repeated three times, and a blank control was used.
(§5) A 3WPSHZ-500 type automatic spraying tower with a spraying area of 0.132 m^2, a spray volume of 10 mL, working pressure of 0.2 MPa, and a liquid volume of 40% of maximum was used. After treatment, the weeds were placed in a greenhouse at a temperature of 15-30° C. Reaction symptoms of the weeds were regularly observed, and 15 days later, five reaction levels were determined according to the following inhibition intervals: 90≦A≦100%; 80≦B<90%, 60≦C<80%; 50≦D<60%, E<50%.

Setaria viridis = test system: Setaria viridis
Description: as §1, §2, §3, §4, §5

Chenopodium album = test system: Chenopodium album
Description: as §1, §2, §3, §4, §5

Amaranthus retroflexus = test system: Amaranthus retroflexus
Description: as §1, §2, §3, §4, §5

Echinochloa crusgalli = test system: Echinochloa crusgalli
Description: as §1, §2, §3, §4, §5

Digiatria sanguinalis = test system: Digiatria sanguinalis
Description: as §1, §2, §3, §4, §5

Row | SMILES | Herbicidal activity Brassica juncea (inhibition level) (Brassica juncea) | Herbicidal activity Setaria viridis (inhibition level) (Setaria viridis) | Herbicidal activity Chenopodium album (inhibition level) (Chenopodium album) | Herbicidal activity Amaranthus retroflexus (inhibition level) (Amaranthus retroflexus) | Herbicidal activity Echinochloa crusgalli (inhibition level) (Echinochloa crusgalli) | Herbicidal activity Digiatria sanguinalis (inhibition level) (Digiatria sanguinalis) | inhibition at 300 g/ha (Brassica juncea; Brassica juncea, 360 h, read-out: Herbicidal activity Brassica juncea (inhibition level)) [%] | inhibition at 300 g/ha (Setaria viridis; Setaria viridis, 360 h, read-out: Herbicidal activity Setaria viridis (inhibition level)) [%] | inhibition at 300 g/ha (Chenopodium album; Chenopodium album, 360 h, read-out: Herbicidal activity Chenopodium album (inhibition level)) [%] | inhibition at 300 g/ha (Amaranthus retroflexus; Amaranthus retroflexus, 360 h, read-out: Herbicidal activity Amaranthus retroflexus (inhibition level)) [%] | inhibition at 300 g/ha (Echinochloa crusgalli; Echinochloa crus-galli, 360 h, read-out: Herbicidal activity Echinochloa crusgalli (inhibition level)) [%] | inhibition at 300 g/ha (Digiatria sanguinalis; 360 h, read-out: Herbicidal activity Digiatria sanguinalis (inhibition level)) [%]
1 | Cc1nn(-c2cc3nc(S(=O)(=O)Cc4cccc(Cl)c4)sc3cc2F)c(=O)n1C [Compound 36] | C (60 ≦ C < 80%) | D (50 ≦ D < 60%) | D (50 ≦ D < 60%) | D (50 ≦ D < 60%) | C (60 ≦ C < 80%) | C (60 ≦ C < 80%) |  |  |  |  |  | 
2 | Cc1nn(-c2cc3nc(S(=O)(=O)Cc4ccccc4)sc3cc2Cl)c(=O)n1C(F)F [Compound 37] | D (50 ≦ D < 60%) | E (E < 50%) | A (90 ≦ A ≦ 100%) | C (60 ≦ C < 80%) | D (50 ≦ D < 60%) | C (60 ≦ C < 80%) |  |  |  |  |  | 
3 | Cc1nn(-c2cc3nc(S(=O)(=O)Cc4c(F)cccc4F)sc3cc2Cl)c(=O)n1C(F)F [Compound 38] | D (50 ≦ D < 60%) | B (80 ≦ B < 90%) | C (60 ≦ C < 80%) | C (60 ≦ C < 80%) | C (60 ≦ C < 80%) | D (50 ≦ D < 60%) |  |  |  |  |  | 
4 | Cc1nn(-c2cc3nc(S(=O)(=O)Cc4cccc(Cl)c4)sc3cc2Cl)c(=O)n1C(F)F [Compound 40] | B (80 ≦ B < 90%) | C (60 ≦ C < 80%) | D (50 ≦ D < 60%) | B (80 ≦ B < 90%) | E (E < 50%) | C (60 ≦ C < 80%) |  |  |  |  |  | 
5 | Cc1nn(-c2cc3nc(S(=O)(=O)Cc4ccc(Cl)cc4)sc3cc2Cl)c(=O)n1C(F)F [Compound 41] | C (60 ≦ C < 80%) | C (60 ≦ C < 80%) | D (50 ≦ D < 60%) | C (60 ≦ C < 80%) | D (50 ≦ D < 60%) | B (80 ≦ B < 90%) |  |  |  |  |  | 
6 | Cc1nn(-c2cc3nc(S(=O)(=O)Cc4ccc(Br)cc4)sc3cc2Cl)c(=O)n1C(F)F [Compound 42] | C (60 ≦ C < 80%) | B (80 ≦ B < 90%) | D (50 ≦ D < 60%) | A (90 ≦ A ≦ 100%) | E (E < 50%) | A (90 ≦ A ≦ 100%) |  |  |  |  |  | 
7 | Cc1ccccc1CS(=O)(=O)c1nc2cc(-n3nc(C)n(C(F)F)c3=O)c(F)cc2s1 [Compound 43] | C (60 ≦ C < 80%) | C (60 ≦ C < 80%) | C (60 ≦ C < 80%) | A (90 ≦ A ≦ 100%) | D (50 ≦ D < 60%) | D (50 ≦ D < 60%) |  |  |  |  |  | 
8 | Cc1nn(-c2cc3nc(S(=O)(=O)Cc4cccc(F)c4)sc3cc2Cl)c(=O)n1C(F)F [Compound 44] | C (60 ≦ C < 80%) | B (80 ≦ B < 90%) | C (60 ≦ C < 80%) | B (80 ≦ B < 90%) | C (60 ≦ C < 80%) | C (60 ≦ C < 80%) |  |  |  |  |  | 
9 | Cc1nn(-c2cc3nc(S(=O)(=O)Cc4ccc(F)cc4F)sc3cc2Cl)c(=O)n1C(F)F [Compound 45] | B (80 ≦ B < 90%) | C (60 ≦ C < 80%) | B (80 ≦ B < 90%) | A (90 ≦ A ≦ 100%) | E (E < 50%) | A (90 ≦ A ≦ 100%) |  |  |  |  |  | 
10 | Cc1ccc([N+](=O)[O-])c(CS(=O)(=O)c2nc3cc(-n4nc(C)n(C(F)F)c4=O)c(F)cc3s2)c1 [Compound 46] | E (E < 50%) | B (80 ≦ B < 90%) | C (60 ≦ C < 80%) | A (90 ≦ A ≦ 100%) | D (50 ≦ D < 60%) | B (80 ≦ B < 90%) |  |  |  |  |  | 
11 | Cc1ccc(CS(=O)(=O)c2nc3cc(-n4nc(C)n(C(F)F)c4=O)c(F)cc3s2)cc1 [Compound 47] | A (90 ≦ A ≦ 100%) | C (60 ≦ C < 80%) | C (60 ≦ C < 80%) | A (90 ≦ A ≦ 100%) | B (80 ≦ B < 90%) | A (90 ≦ A ≦ 100%) |  |  |  |  |  | 
12 | CCCS(=O)(=O)c1nc2cc(-n3nc(C)n(C)c3=O)c(F)cc2s1 [Compound 48, 1-(6-fluoro-2-(propylsulfonyl)benzo[d]thiazol-5-yl)-3,4-dimethyl-1H-1,2,4-triazol-5(4H)-one] |  |  |  |  |  |  | 80 to 90 | 60 to 80 | 50 to 60 | 80 to 90 | 80 to 90 | 80 to 90
13 | Cc1nn(-c2cc3nc(S(=O)(=O)Cc4ccc(F)cc4F)sc3cc2F)c(=O)n1C(F)F [Compound 49] | A (90 ≦ A ≦ 100%) | D (50 ≦ D < 60%) | B (80 ≦ B < 90%) | A (90 ≦ A ≦ 100%) | A (90 ≦ A ≦ 100%) | C (60 ≦ C < 80%) |  |  |  |  |  | 
14 | Cc1nn(-c2cc3nc(S(=O)(=O)Cc4cccc([N+](=O)[O-])c4)sc3cc2F)c(=O)n1C(F)F [Compound 50] | C (60 ≦ C < 80%) | B (80 ≦ B < 90%) | D (50 ≦ D < 60%) | B (80 ≦ B < 90%) | B (80 ≦ B < 90%) | A (90 ≦ A ≦ 100%) |  |  |  |  |  | 
15 | Cc1nn(-c2cc3nc(S(=O)(=O)Cc4ccccc4)sc3cc2F)c(=O)n1C(F)F [Compound 51] | B (80 ≦ B < 90%) | A (90 ≦ A ≦ 100%) | B (80 ≦ B < 90%) | A (90 ≦ A ≦ 100%) | C (60 ≦ C < 80%) | A (90 ≦ A ≦ 100%) |  |  |  |  |  | 
16 | Cc1nn(-c2cc3nc(S(=O)(=O)Cc4ccccc4F)sc3cc2F)c(=O)n1C(F)F [Compound 52] | B (80 ≦ B < 90%) | B (80 ≦ B < 90%) | B (80 ≦ B < 90%) | C (60 ≦ C < 80%) | E (E < 50%) | A (90 ≦ A ≦ 100%) |  |  |  |  |  | 
17 | Cc1nn(-c2cc3nc(S(=O)(=O)Cc4cccc(Cl)c4)sc3cc2F)c(=O)n1C(F)F [Compound 53] | A (90 ≦ A ≦ 100%) | D (50 ≦ D < 60%) | B (80 ≦ B < 90%) | B (80 ≦ B < 90%) | C (60 ≦ C < 80%) | B (80 ≦ B < 90%) |  |  |  |  |  | 
